In paper PMC5218480 (PLoS ONE, 2017):

Test system: MV-4-11 cells
Experiment: Gene expression microarray analysis (Affymetrix PrimeView) and GSEA
Format: cell-based, human
Set-up: RFU PODN (11730768_x_at) / Fold change /veh PODN (11730768_x_at) / RFU LINC00158 (11744669_a_at) / Fold change /veh LINC00158 (11744669_a_at) / RFU DUSP10 (11751237_a_at) / Fold change /veh DUSP10 (11751237_a_at) / RFU ID3 (11757404_x_at) / Fold change /veh ID3 (11757404_x_at) / RFU PLEKHG5 (11737974_s_at) / Fold change /veh PLEKHG5 (11737974_s_at) / RFU LRRC4B (11730491_at) / Fold change /veh LRRC4B (11730491_at) / RFU GIMAP4 (11747438_a_at) / Fold change /veh GIMAP4 (11747438_a_at) / RFU KRT8 (11758183_x_at) / Fold change /veh KRT8 (11758183_x_at) / RFU CNN1 (11734310_a_at) / Fold change /veh CNN1 (11734310_a_at) / RFU VPS37D (11726825_at) / Fold change /veh VPS37D (11726825_at) / RFU C10orf10 (11716522_x_at) / Fold change /veh C10orf10 (11716522_x_at) / RFU KIR2DL2 /// KIR2DL4 /// KIR2DL5A /// KIR2DL5B /// KIR2DS1 /// KIR2DS2 /// KIR2DS3 /// KIR2DS4 /// KIR3DL3 /// KIR3DL3 /// KIR3DS1 (11738374_at) / Fold change /veh KIR2DL2 /// KIR2DL4 /// KIR2DL5A /// KIR2DL5B /// KIR2DS1 /// KIR2DS2 /// KIR2DS3 /// KIR2DS4 /// KIR3DL3 /// KIR3DL3 /// KIR3DS1 (11738374_at) / RFU C1QL1 (11718748_at) / Fold change /veh C1QL1 (11718748_at) / RFU TMPRSS4 (11747572_a_at) / Fold change /veh TMPRSS4 (11747572_a_at) / RFU HAMP (11756126_x_at) / Fold change /veh HAMP (11756126_x_at) / RFU RNFT2 (11725882_a_at) / Fold change /veh RNFT2 (11725882_a_at) / RFU NR4A2 (11747474_a_at) / Fold change /veh NR4A2 (11747474_a_at) / RFU ABCC12 (11746883_a_at) / Fold change /veh ABCC12 (11746883_a_at) / RFU TMEM136 (11760407_x_at) / Fold change /veh TMEM136 (11760407_x_at) / RFU CLDN22 /// WWC2 (11732394_at) / Fold change /veh CLDN22 /// WWC2 (11732394_at) / RFU HLA-DPB1 (11760878_x_at) / Fold change /veh HLA-DPB1 (11760878_x_at) / RFU SPINT1 (11716480_a_at) / Fold change /veh SPINT1 (11716480_a_at) / RFU GAP43 (11754022_s_at) / Fold change /veh GAP43 (11754022_s_at) / RFU A4GNT (11735810_at) / Fold change /veh A4GNT (11735810_at) / RFU PRB3 (11715151_x_at) / Fold change /veh PRB3 (11715151_x_at) / RFU TUBB4B (11761932_at) / Fold change /veh TUBB4B (11761932_at) / RFU CAPN14 (11732068_a_at) / Fold change /veh CAPN14 (11732068_a_at) / RFU TMCC2 (11721928_a_at) / Fold change /veh TMCC2 (11721928_a_at) / RFU IRGQ (11745062_a_at) / Fold change /veh IRGQ (11745062_a_at) / RFU FAM174B (11720279_a_at) / Fold change /veh FAM174B (11720279_a_at) / RFU TMPRSS4 (11748680_a_at) / Fold change /veh TMPRSS4 (11748680_a_at) / RFU FAM212B (11763350_a_at) / Fold change /veh FAM212B (11763350_a_at) / RFU PLEKHG5 (11743358_a_at) / Fold change /veh PLEKHG5 (11743358_a_at) / RFU ZSCAN30 (11745921_a_at) / Fold change /veh ZSCAN30 (11745921_a_at) / RFU CMKLR1 (11741424_a_at) / Fold change /veh CMKLR1 (11741424_a_at) / RFU LOC101060620 /// MAPK8IP1 (11723275_at) / Fold change /veh LOC101060620 /// MAPK8IP1 (11723275_at) / RFU SPTSSB (11747773_x_at) / Fold change /veh SPTSSB (11747773_x_at) / RFU PRSS12 (11739890_at) / Fold change /veh PRSS12 (11739890_at) / RFU BIN1 (11741810_x_at) / Fold change /veh BIN1 (11741810_x_at) / RFU WNT11 (11732464_a_at) / Fold change /veh WNT11 (11732464_a_at) / RFU C10orf10 (11716521_a_at) / Fold change /veh C10orf10 (11716521_a_at) / RFU C5orf56 (11738089_at) / Fold change /veh C5orf56 (11738089_at) / RFU CYB561 (11721691_x_at) / Fold change /veh CYB561 (11721691_x_at) / RFU ANKRD19P (11752326_a_at) / Fold change /veh ANKRD19P (11752326_a_at) / RFU OR2T12 /// OR2T33 /// OR2T8 (11738714_s_at) / Fold change /veh OR2T12 /// OR2T33 /// OR2T8 (11738714_s_at) / RFU VCAN (11748164_a_at) / Fold change /veh VCAN (11748164_a_at) / RFU JSRP1 (11732532_at) / Fold change /veh JSRP1 (11732532_at) / RFU KRTAP10-11 (11738290_x_at) / Fold change /veh KRTAP10-11 (11738290_x_at) / RFU MYO3A (11730013_a_at) / Fold change /veh MYO3A (11730013_a_at) / RFU EBF3 (11725865_a_at) / Fold change /veh EBF3 (11725865_a_at) / RFU CAMK2N1 (11719241_x_at) / Fold change /veh CAMK2N1 (11719241_x_at) / RFU C5orf56 (11738088_a_at) / Fold change /veh C5orf56 (11738088_a_at) / RFU OLFML3 (11715873_a_at) / Fold change /veh OLFML3 (11715873_a_at) / RFU LOC100653217 /// NTM (11731650_a_at) / Fold change /veh LOC100653217 /// NTM (11731650_a_at) / RFU MAPK11 (11762145_a_at) / Fold change /veh MAPK11 (11762145_a_at) / RFU FIZ1 (11724087_x_at) / Fold change /veh FIZ1 (11724087_x_at) / RFU OASL (11726364_x_at) / Fold change /veh OASL (11726364_x_at) / RFU SOX15 (11748057_x_at) / Fold change /veh SOX15 (11748057_x_at) / RFU CD79A (11719716_a_at) / Fold change /veh CD79A (11719716_a_at) / RFU HIST1H1D (11736915_at) / Fold change /veh HIST1H1D (11736915_at) / RFU CASKIN2 (11723855_a_at) / Fold change /veh CASKIN2 (11723855_a_at) / RFU LOC730098 (11760151_x_at) / Fold change /veh LOC730098 (11760151_x_at) / RFU OR4N2 (11742367_at) / Fold change /veh OR4N2 (11742367_at) / RFU PRRT2 (11749266_a_at) / Fold change /veh PRRT2 (11749266_a_at) / RFU SNX32 (11753110_a_at) / Fold change /veh SNX32 (11753110_a_at) / RFU CDHR5 (11726645_a_at) / Fold change /veh CDHR5 (11726645_a_at) / RFU RCAN1 (11760418_a_at) / Fold change /veh RCAN1 (11760418_a_at) / RFU FAM167A (11723789_a_at) / Fold change /veh FAM167A (11723789_a_at) / RFU FAM26E (11764081_at) / Fold change /veh FAM26E (11764081_at) / RFU ISYNA1 (11749810_s_at) / Fold change /veh ISYNA1 (11749810_s_at) / RFU ACY1 (11761880_at) / Fold change /veh ACY1 (11761880_at) / RFU 11764098_at / Fold change /veh 11764098_at / RFU SAMD14 (11745864_x_at) / Fold change /veh SAMD14 (11745864_x_at) / RFU NPB (11741838_a_at) / Fold change /veh NPB (11741838_a_at) / RFU TMPRSS6 (11731388_a_at) / Fold change /veh TMPRSS6 (11731388_a_at) / RFU KRTAP10-2 (11738614_at) / Fold change /veh KRTAP10-2 (11738614_at) / RFU ARHGAP8 /// PRR5-ARHGAP8 (11727945_x_at) / Fold change /veh ARHGAP8 /// PRR5-ARHGAP8 (11727945_x_at) / RFU KRTAP5-7 /// NADSYN1 (11734609_at) / Fold change /veh KRTAP5-7 /// NADSYN1 (11734609_at) / RFU RASL12 (11751679_a_at) / Fold change /veh RASL12 (11751679_a_at) / RFU CDKN2B (11736163_a_at) / Fold change /veh CDKN2B (11736163_a_at) / RFU PRF1 (11729649_at) / Fold change /veh PRF1 (11729649_at) / RFU, ZNF638 /// ZNF638-IT1 / Fold change vs veh, ZNF638 /// ZNF638-IT1 / RFU, PANK3 / Fold change vs veh, PANK3 / RFU, SH3YL1 / Fold change vs veh, SH3YL1 / RFU, ZEB2 / Fold change vs veh, ZEB2 / RFU, NRIP1 / Fold change vs veh, NRIP1 / RFU, PTTG1IP / Fold change vs veh, PTTG1IP / RFU, CAPN2 / Fold change vs veh, CAPN2 / RFU, MED14 / Fold change vs veh, MED14 / RFU, SNORA58 / Fold change vs veh, SNORA58 / RFU, C1orf63 / Fold change vs veh, C1orf63 / RFU, LRRFIP1 / Fold change vs veh, LRRFIP1 / RFU, NDUFAF7 / Fold change vs veh, NDUFAF7 / RFU, SLC12A2 / Fold change vs veh, SLC12A2 / RFU, IBTK / Fold change vs veh, IBTK / RFU, ESF1 / Fold change vs veh, ESF1 / Fold change vs veh, TMEM50B / RFU, TAOK1 / Fold change vs veh, TAOK1 / RFU, ACBD3 / Fold change vs veh, ACBD3 / RFU, TMA16 / Fold change vs veh, TMA16 / RFU, RWDD3 / Fold change vs veh, RWDD3 / RFU, BCAT1 / Fold change vs veh, BCAT1 / RFU, EDEM3 / Fold change vs veh, EDEM3 / RFU, TMEM33 / Fold change vs veh, TMEM33 / RFU, WDR75 / Fold change vs veh, WDR75 / RFU, AHCTF1 / Fold change vs veh, AHCTF1 / RFU, TFRC / Fold change vs veh, TFRC / RFU, ZDHHC17 / Fold change vs veh, ZDHHC17 / RFU, NOM1 / Fold change vs veh, NOM1 / RFU, ARL8B / Fold change vs veh, ARL8B / RFU, ZBTB11 / Fold change vs veh, ZBTB11 / RFU, TAMM41 / Fold change vs veh, TAMM41 / RFU, KIAA1704 /// LOC100996395 / Fold change vs veh, KIAA1704 /// LOC100996395 / RFU, ING1 / Fold change vs veh, ING1 / RFU, TRMT61B / Fold change vs veh, TRMT61B / RFU, FUBP3 / Fold change vs veh, FUBP3 / RFU, TP53 / Fold change vs veh, TP53 / RFU, TNKS2 / Fold change vs veh, TNKS2 / RFU, ZFP14 / Fold change vs veh, ZFP14 / RFU, ACTR2 / Fold change vs veh, ACTR2 / RFU, PPP3R1 / Fold change vs veh, PPP3R1 / RFU, PIK3R1 / Fold change vs veh, PIK3R1 / RFU, HNRNPA1 / Fold change vs veh, HNRNPA1 / RFU, RNF170 / Fold change vs veh, RNF170 / RFU, ZNF28 / Fold change vs veh, ZNF28 / RFU, RNGTT / Fold change vs veh, RNGTT / RFU, OGT / Fold change vs veh, OGT / RFU, BRD1 / Fold change vs veh, BRD1 / RFU, MARS / Fold change vs veh, MARS / RFU, ZNF655 / Fold change vs veh, ZNF655 / RFU, FAHD1 / Fold change vs veh, FAHD1 / RFU, BDP1 / Fold change vs veh, BDP1 / RFU, LRRCC1 / Fold change vs veh, LRRCC1 / RFU, ARID1A / Fold change vs veh, ARID1A / RFU, ZNF146 / Fold change vs veh, ZNF146 / RFU, ZNF330 / Fold change vs veh, ZNF330 / RFU, GPN3 / Fold change vs veh, GPN3 / RFU, C9orf123 / Fold change vs veh, C9orf123 / RFU, N4BP2L2 / Fold change vs veh, N4BP2L2 / RFU, ARFIP1 / Fold change vs veh, ARFIP1 / RFU, FAM179B / Fold change vs veh, FAM179B / RFU, BCL10 / Fold change vs veh, BCL10 / RFU, UHRF1BP1L / Fold change vs veh, UHRF1BP1L / RFU, BET1 / Fold change vs veh, BET1 / RFU, CNOT2 / Fold change vs veh, CNOT2 / RFU, ZNF268 / Fold change vs veh, ZNF268 / Fold change vs veh, ZNF507 / RFU, DGCR2 / Fold change vs veh, DGCR2 / RFU, WDSUB1 / Fold change vs veh, WDSUB1 / Fold change vs veh, HSP90B1 /// MIR3652 / RFU, ADSS / Fold change vs veh, ADSS / RFU, GK / Fold change vs veh, GK / RFU, ZNF148 / Fold change vs veh, ZNF148 / RFU, TAF9 / Fold change vs veh, TAF9 / RFU, SLC1A5 / Fold change vs veh, SLC1A5 / RFU, SLMO2 / Fold change vs veh, SLMO2 / RFU, ABCC4 / Fold change vs veh, ABCC4 / RFU, LOC101060439 /// RAP1B / Fold change vs veh, LOC101060439 /// RAP1B / RFU, RFX7 / Fold change vs veh, RFX7 / RFU, GTPBP10 / Fold change vs veh, GTPBP10 / RFU, CNEP1R1 / Fold change vs veh, CNEP1R1 / RFU, BIVM-ERCC5 /// ERCC5 / Fold change vs veh, BIVM-ERCC5 /// ERCC5 / RFU, ILF3 / Fold change vs veh, ILF3 / RFU 11762660_at / Fold change /veh 11762660_at / RFU VCAN (11757783_s_at) / Fold change /veh VCAN (11757783_s_at) / RFU DDX43 (11728927_at) / Fold change /veh DDX43 (11728927_at) / RFU KRT8 (11758188_x_at) / Fold change /veh KRT8 (11758188_x_at) / RFU NKD1 (11759106_at) / Fold change /veh NKD1 (11759106_at) / RFU SRD5A1 (11742802_a_at) / Fold change /veh SRD5A1 (11742802_a_at) / RFU TPSAB1 /// TPSB2 (11721975_s_at) / Fold change /veh TPSAB1 /// TPSB2 (11721975_s_at) / RFU GSTM3 (11746129_a_at) / Fold change /veh GSTM3 (11746129_a_at) / RFU IL23R (11737362_x_at) / Fold change /veh IL23R (11737362_x_at) / RFU TMEM51 (11727254_a_at) / Fold change /veh TMEM51 (11727254_a_at) / RFU PIWIL2 (11732686_x_at) / Fold change /veh PIWIL2 (11732686_x_at) / RFU ORM1 (11744905_x_at) / Fold change /veh ORM1 (11744905_x_at) / RFU CCDC152 (11743942_at) / Fold change /veh CCDC152 (11743942_at) / RFU ECM1 (11717891_a_at) / Fold change /veh ECM1 (11717891_a_at) / RFU IL23R (11748794_a_at) / Fold change /veh IL23R (11748794_a_at) / RFU TNFAIP8L3 (11732012_x_at) / Fold change /veh TNFAIP8L3 (11732012_x_at) / RFU MBOAT4 (11741988_at) / Fold change /veh MBOAT4 (11741988_at) / RFU 11764193_at / Fold change /veh 11764193_at / RFU TMEM53 (11763286_at) / Fold change /veh TMEM53 (11763286_at) / RFU MAGEB2 (11727129_at) / Fold change /veh MAGEB2 (11727129_at) / RFU TMEM200A (11744735_a_at) / Fold change /veh TMEM200A (11744735_a_at) / RFU CCDC152 (11751479_a_at) / Fold change /veh CCDC152 (11751479_a_at) / RFU FAM211A (11726209_a_at) / Fold change /veh FAM211A (11726209_a_at) / RFU RGS16 (11746705_a_at) / Fold change /veh RGS16 (11746705_a_at) / RFU VCAN (11755009_s_at) / Fold change /veh VCAN (11755009_s_at) / RFU RHOB (11743442_s_at) / Fold change /veh RHOB (11743442_s_at) / RFU RGS16 (11720943_a_at) / Fold change /veh RGS16 (11720943_a_at) / RFU RGS16 (11720944_at) / Fold change /veh RGS16 (11720944_at) / RFU, VPS4B / Fold change vs veh, VPS4B / RFU, CREB1 / Fold change vs veh, CREB1 / RFU, DNAJC13 / Fold change vs veh, DNAJC13 / RFU, GNAQ / Fold change vs veh, GNAQ / RFU, CDK5R1 / Fold change vs veh, CDK5R1 / RFU, ZRANB3 / Fold change vs veh, ZRANB3 / RFU, CUL4A / Fold change vs veh, CUL4A / RFU, CCNY / Fold change vs veh, CCNY / RFU, UFL1 / Fold change vs veh, UFL1 / RFU, COG3 / Fold change vs veh, COG3 / RFU, DIAPH2 / Fold change vs veh, DIAPH2 / RFU, SKA2 / Fold change vs veh, SKA2 / RFU, AFF3 / Fold change vs veh, AFF3 / RFU, LMF1 / Fold change vs veh, LMF1 / RFU, IPO11 / Fold change vs veh, IPO11 / RFU, DFFB / Fold change vs veh, DFFB / RFU, FOXP1 / Fold change vs veh, FOXP1 / RFU, CARD8 / Fold change vs veh, CARD8 / RFU, STRN3 / Fold change vs veh, STRN3 / RFU, ADK / Fold change vs veh, ADK / RFU, RASSF2 / Fold change vs veh, RASSF2 / RFU, WIPF1 / Fold change vs veh, WIPF1 / RFU, LARP1B / Fold change vs veh, LARP1B / RFU, RASA1 / Fold change vs veh, RASA1 / RFU, RB1 / Fold change vs veh, RB1 / RFU, PPFIA1 / Fold change vs veh, PPFIA1 / RFU, MAT2A / Fold change vs veh, MAT2A / RFU, CCT5 / Fold change vs veh, CCT5 / RFU, WDR92 / Fold change vs veh, WDR92 / RFU, CUX1 / Fold change vs veh, CUX1 / RFU, TTC7A / Fold change vs veh, TTC7A / RFU, TMEM135 / Fold change vs veh, TMEM135 / RFU, DEPTOR / Fold change vs veh, DEPTOR / RFU, CPM / Fold change vs veh, CPM / RFU, DNAJB6 / Fold change vs veh, DNAJB6 / RFU, CACNA2D3 / Fold change vs veh, CACNA2D3 / RFU, DTX4 / Fold change vs veh, DTX4 / RFU, TFCP2 / Fold change vs veh, TFCP2 / RFU, GMCL1 /// GMCL1P1 / Fold change vs veh, GMCL1 /// GMCL1P1 / RFU, AEBP2 / Fold change vs veh, AEBP2 / RFU, SNHG1 /// SNORD22 /// SNORD25 /// SNORD26 /// SNORD27 /// SNORD28 /// SNORD29 /// SNORD31 / Fold change vs veh, SNHG1 /// SNORD22 /// SNORD25 /// SNORD26 /// SNORD27 /// SNORD28 /// SNORD29 /// SNORD31 / Fold change (Aza/veh), C12orf56 (ProbeSet 11735607_a_at) / Fold change (ACY-1035/veh), C12orf56 (ProbeSet 11735607_a_at) / Fold change (Aza/veh), FGFR1OP (ProbeSet 11751329_s_at) / Fold change (ACY-1035/veh), FGFR1OP (ProbeSet 11751329_s_at) / Fold change (Aza/veh), VPS36 (ProbeSet 11739960_a_at) / Fold change (ACY-1035/veh), VPS36 (ProbeSet 11739960_a_at) / RFU SYPL1 (11715823_x_at) / Fold change /veh SYPL1 (11715823_x_at) / RFU IGFBP7 (11715501_s_at) / Fold change /veh IGFBP7 (11715501_s_at) / RFU REEP3 (11722064_at) / Fold change /veh REEP3 (11722064_at) / RFU IGLL1 (11728026_x_at) / Fold change /veh IGLL1 (11728026_x_at): dose or concentration left out as unconfirmed
Settings: ProbeSet 11738335_x_at; LIST B

SMILES: Nc1ncn([C@@H]2O[C@H](CO)[C@@H](O)[C@H]2O)c(=O)n1 [azacitidine]
- RFU, TP53: 77.85 RFU
